Tests used:
[1] = molecular target: T1, PonAAS2; test: enzyme inhibition of Trp→IAAld conversion, Lineweaver-Burk kinetics (IC50 […]); assay type: biochemical, Pontania sp.
T1 construct: recombinant, fusion protein with trigger factor (pCOLD TF)

[2] = molecular target: T2, PonAAS1; test: enzyme inhibition of 5-HTrp→serotonin conversion, dose-response; assay type: biochemical, Pontania sp.
T2 construct: recombinant, fusion protein with trigger factor (pCOLD TF)

- Ki [1]: 0.2 µM
- IC50 [2]: ~20 µM
SMILES: Oc1ccccc1-c1nc(-c2ccc3c(c2)CCO3)n[nH]1 [HTS10550, 2-[3-(2,3-dihydro-1-benzofuran-5-yl)-1H-1,2,4-triazol-5-yl]phenol]
